From paper doi:10.1101/760033v2 (biorxiv, 2019)

Key:
Assay in all cases: HTRF cAMP assay in HEK293T
Format in all cases: cell-based
Olfr739 [1] = target: T1, Olfr739 (Mus musculus, UniProt E9Q1P0); conditions: partial agonist; range printed for four receptors together
T1 sequence (E9Q1P0 1-309): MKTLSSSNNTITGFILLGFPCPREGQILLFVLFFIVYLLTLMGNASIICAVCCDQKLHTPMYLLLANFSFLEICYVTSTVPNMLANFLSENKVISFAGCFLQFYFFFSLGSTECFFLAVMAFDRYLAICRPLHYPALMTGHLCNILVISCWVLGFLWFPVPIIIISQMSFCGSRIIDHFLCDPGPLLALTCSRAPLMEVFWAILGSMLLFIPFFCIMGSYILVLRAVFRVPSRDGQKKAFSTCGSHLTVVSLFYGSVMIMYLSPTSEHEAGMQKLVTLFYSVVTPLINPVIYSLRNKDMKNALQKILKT

Olfr748 = target: T2, Olfr748 (Mus musculus, UniProt E9Q9Z0)
T2 sequence (E9Q9Z0 1-307): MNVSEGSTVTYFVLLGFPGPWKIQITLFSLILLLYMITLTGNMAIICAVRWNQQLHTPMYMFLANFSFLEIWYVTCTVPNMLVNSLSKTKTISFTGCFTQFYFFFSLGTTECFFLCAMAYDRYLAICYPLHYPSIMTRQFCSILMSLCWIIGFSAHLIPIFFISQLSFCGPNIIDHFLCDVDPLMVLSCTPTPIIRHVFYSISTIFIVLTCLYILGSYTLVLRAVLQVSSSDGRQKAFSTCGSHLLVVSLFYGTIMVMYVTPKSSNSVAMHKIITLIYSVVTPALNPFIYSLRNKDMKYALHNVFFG

Olfr739 [2] = target: T1, Olfr739
Olfr743 = target: T3, Olfr743 (Mus musculus, UniProt L7N1Y2)
T3 sequence (L7N1Y2 1-311): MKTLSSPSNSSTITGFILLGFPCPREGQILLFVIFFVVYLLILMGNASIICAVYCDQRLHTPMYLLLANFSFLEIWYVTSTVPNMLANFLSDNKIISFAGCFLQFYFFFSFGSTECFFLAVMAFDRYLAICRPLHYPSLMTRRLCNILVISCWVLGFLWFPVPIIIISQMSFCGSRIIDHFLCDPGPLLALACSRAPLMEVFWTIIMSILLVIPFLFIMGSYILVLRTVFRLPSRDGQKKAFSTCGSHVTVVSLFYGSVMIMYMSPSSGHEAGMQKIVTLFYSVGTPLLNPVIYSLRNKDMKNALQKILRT

| % of the maximum indole response (Olfr739 [1]) | EC50 (Olfr748) | EC50 (Olfr739 [2]) | EC50 (Olfr743) | Compound |
| --- | --- | --- | --- | --- |
| 71-75% | – | – | – | COc1ccc2ccccc2c1 [compound 35, 2-methoxynaphthalene] |
| – | 81 µM | 32 µM | 0.08 µM | c1ccc2[nH]ccc2c1 [compound 37, indole] |
